From ChEMBL document CHEMBL4020796, “Evaluation of guggulsterone derivatives as novel kidney cell protective agents against cisplatin-induced nephrotoxicity” (2017) come the findings set out here.

Test [1] concerns LLC-PK1. As to the kind of experiment: Renoprotective activity in pig LLC-PK1 cells assessed as inhibition of cisplatin-induced oxidative stress by measuring cell viability up to 250 uM after 24 hrs by MTT assay. It counts as functional, cell-based. To be noted: Sus scrofa. In general terms: Formazan colour is commonly taken as a measure of viable cells.
For test [2], the system named is LLC-PK1. As to the kind of experiment: Renoprotective activity in pig LLC-PK1 cells assessed as inhibition of cisplatin-induced oxidative stress by measuring cell viability at 25 uM after 24 hrs by MTT assay relative to control. It counts as functional, Sus scrofa.
The subject of test [3] is LLC-PK1. As to the kind of experiment: Renoprotective activity in pig LLC-PK1 cells assessed as inhibition of cisplatin-induced cytotoxicity by measuring cell viability at 10 to 50 uM by phase contrast microscopic method. To be noted: Sus scrofa. It counts as functional, cell-based.
The subject of test [4] is LLC-PK1. The test is described as follows: Renoprotective activity in pig LLC-PK1 cells assessed as inhibition of cisplatin-induced cell death by measuring cell viability at 50 uM by flow cytometry. It counts as functional, cell-based. The note with it: Sus scrofa.
The species entered for test [5] is Sus scrofa. The test is described as follows: Inhibition of cisplatin-induced MAPK p38 phosphorylation in pig LLC-PK1 cells at 10 to 50 uM after 24 hrs by Western blot method. It counts as cell-based. A general note: A western blot detects proteins with antibodies after separation by electrophoresis.
The species named for test [6] is Sus scrofa. As to the kind of experiment: Inhibition of cisplatin-induced MAPK JNK phosphorylation in pig LLC-PK1 cells at 10 to 50 uM after 24 hrs by Western blot method. It counts as cell-based.
Test [7] deals with LLC-PK1. As to the kind of experiment: Renoprotective activity in pig LLC-PK1 cells assessed as inhibition of cisplatin-induced cleaved caspase-3 levels at 10 to 50 uM after 24 hrs by Western blot method. It counts as functional, cell-based. To be noted: Sus scrofa.

Active and inactive are the calls of the source. No cut-off for these calls is given here.

With `C/C=C1/[C@@H](n2cc(CCCC#N)nn2)C[C@H]2[C@@H]3CCC4=CC(=O)CC[C@]4(C)[C@H]3CC[C@]12C`, the inhibition entry with LLC-PK1 [1] was “inactive”. Regarding `C/C=C1/[C@@H](n2cc(-c3ccccc3)nn2)C[C@H]2[C@@H]3CCC4=CC(=O)CC[C@]4(C)[C@H]3CC[C@]12C`, the inhibition result in the test on LLC-PK1 [1] is “Active”.

As to `C/C=C1/[C@@H](n2cc(CCCC)nn2)C[C@H]2[C@@H]3CCC4=CC(=O)CC[C@]4(C)[C@H]3CC[C@]12C`, in the test on LLC-PK1 [1], the inhibition result was “inactive”. Take `C/C=C1/[C@@H](n2cc(-c3ccc(C)cc3)nn2)C[C@H]2[C@@H]3CCC4=CC(=O)CC[C@]4(C)[C@H]3CC[C@]12C`: in the test with LLC-PK1 [1], the inhibition result was “Active”. Take `C/C=C1/[C@@H](n2cc(-c3ccc(F)cc3)nn2)C[C@H]2[C@@H]3CCC4=CC(=O)CC[C@]4(C)[C@H]3CC[C@]12C`: in the test with LLC-PK1 [1], the inhibition entry is “Active”.

As for `C/C=C1/[C@@H](n2cc(CO)nn2)C[C@H]2[C@@H]3CCC4=CC(=O)CC[C@]4(C)[C@H]3CC[C@]12C`, the Activity in the test with LLC-PK1 [2] is recorded as over 90%. For the same compound, the inhibition entry with LLC-PK1 [3], with LLC-PK1 [4], in the test filed under Sus scrofa [5], in the test listed under Sus scrofa [6] and in the test on LLC-PK1 [7] was “Active” each time.
